Assay results as given in patent US20160002204A1 (Board of Regents, The University of Texas System, priority 2014, published 2016).
pEC50, pIC50: −log10 of the molar value.

What was measured:
[1] = target: T1, GLS1 (purified recombinant human GAC) (Homo sapiens, UniProt O94925); assay: GLS1 enzymatic activity assay (dual-coupled, Amplex UltraRed/resorufin); type: biochemical
T1 sequence (O94925 55-598 isoform O94925-3 limits assumed): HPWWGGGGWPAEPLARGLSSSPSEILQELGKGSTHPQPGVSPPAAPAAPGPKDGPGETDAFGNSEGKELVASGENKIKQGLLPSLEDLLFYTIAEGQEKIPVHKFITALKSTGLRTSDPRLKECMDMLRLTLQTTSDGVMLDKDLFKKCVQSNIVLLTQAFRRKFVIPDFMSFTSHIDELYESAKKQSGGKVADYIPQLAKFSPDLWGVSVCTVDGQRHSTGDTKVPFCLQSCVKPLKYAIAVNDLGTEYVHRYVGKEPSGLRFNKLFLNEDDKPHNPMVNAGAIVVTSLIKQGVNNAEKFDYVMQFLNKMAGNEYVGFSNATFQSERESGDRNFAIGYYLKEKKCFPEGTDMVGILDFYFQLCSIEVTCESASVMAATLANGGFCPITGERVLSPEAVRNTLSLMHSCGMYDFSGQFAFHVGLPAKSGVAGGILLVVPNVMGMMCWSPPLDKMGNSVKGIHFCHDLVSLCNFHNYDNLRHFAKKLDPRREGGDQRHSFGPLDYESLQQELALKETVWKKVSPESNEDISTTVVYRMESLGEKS
Description: GLS1 Enzymatic Activity Assay
The inhibition of purified recombinant human GAC by varying concentrations of inhibitors is assessed via a dual-coupled enzymatic assay. The glutamate produced by the glutaminase reaction is used by glutamate oxidase to produce α-ketoglutarate, ammonia, and hydrogen peroxide, with this hydrogen peroxide subsequently being used by horseradish peroxidase to produce resorufin in the presence of Amplex UltraRed. The assay buffer consisted of 50 mM Hepes (pH 7.4), 0.25 mM EDTA and 0.1 mM Triton X-100. GAC was incubated with potassium phosphate (10 minutes at room temperature) prior to incubation with inhibitor (10 minutes at room temperature). The final reaction conditions were as follows: 2 nM GAC, 50 mM potassium phosphate, 100 mU/mL glutamate oxidase (Sigma), 1 mM glutamine (Sigma), 100 mU/mL horseradish peroxidase (Sigma), 75 μM Amplex UltraRed (Life Technologies), and 1% (v/v) DMSO. The production of resorufin was monitored on a Perkin Elmer Envision plate reader (excitation 530 nm, emission 590 nm) either in a kinetics or endpoint mode (at 20 minutes). IC50 values were calculated using a four-parameter logistic curve fit.

A549 cells = assay: A549 proliferation (viability) assay, Cell Titer Fluor, 72 hours; type: cell-based; details: Homo sapiens
Description: A549 cells were routinely maintained in RPMI 1640 media (Gibco catalog number 11875-093) supplemented with 10% dialyzed fetal bovine serum using a humidified incubator (37° C., 5% CO2 and ambient O2). In preparation for the viability assay, cells were inoculated into 384-well black CulturPlates (Perkin Elmer) at a density of 1000 cells/well in a volume of 40 uL. Following a 24-hour incubation at 37° C., 5% CO2 and ambient O2, cells were treated with compound (10 uL) in a final DMSO concentration of 0.5% (v/v). The microplates were then incubated for 72 hours (37° C., 5% CO2 and ambient O2). Cell Titer Fluor (Promega) was subsequently added (10 uL of 6× reagent) and mixed for 15 minutes at room temperature. The plates were then incubated for 30 minutes (37° C., 5% CO2 and ambient O2) and fluorescence was subsequently read on the Perkin Elmer Envision plate reader. EC50 values were calculated using a four-parameter logistic curve fit.

Row | SMILES | pIC50 [1] | pEC50 (A549 cells)
1 | CO[C@H](C(=O)Nc1ccn(CC(F)CCn2cc(C(=O)NCc3cccc(OC(F)(F)F)c3)nn2)c(=O)c1F)c1ccccc1 (stereo partly drawn) [Example 309, 1-(3-fluoro-4-{3-fluoro-4-[(2S)-2-methoxy-2-phenylacetamido]-2-oxo-1,2-dihydropyridin-1-yl}butyl)-N-{[3-(trifluoromethoxy)phenyl]methyl}-1H-1,2,3-triazole-4-carboxamide] | 5.30 to 6.30 | 5.30 to 6.30
2 | O=C(CC1CCCCC1)Nc1ccn(CCCCc2nnc(C(=O)NCc3cccc(OC(F)(F)F)c3)s2)c(=O)c1 [Example 440, 5-{4-[4-(2-cyclohexylacetamido)-2-oxo-1,2-dihydropyridin-1-yl]butyl}-N-{[3-(trifluoromethoxy)phenyl]methyl]-1,3,4-thiadiazole-2-carboxamide] | > 7.00 | > 7.00
3 | N#CC1CCCN(C(=O)C(=O)Nc2ccn(CCC(F)Cn3cc(C(=O)NCc4cccc(OC(F)(F)F)c4)nn3)c(=O)c2F)C1 (stereo not shown) [Example 420, 1-(4-{4-[2-(3-cyanopiperidin-1-yl)-2-oxoacetamido]-3-fluoro-2-oxo-1,2-dihydropyridin-1-yl}-2-fluorobutyl)-N-{[3-(trifluoromethoxy)phenyl]methyl}-1H-1,2,3-triazole-4-carboxamide] | > 7.00 | 5.30 to 6.30
4 | CC(OC(=O)Nc1ccn(CCC(F)Cn2cc(C(=O)NCc3cccc(OC(F)(F)F)c3)nn2)c(=O)n1)c1ccccc1 (stereo not shown) [Example 497, 1-phenylethyl N-(1-{3-fluoro-4-[4-({[3-(trifluoromethoxy)phenyl]methyl}carbamoyl)-1H-1,2,3-triazol-1-yl]butyl}-2-oxo-1,2-dihydropyrimidin-4-yl)carbamate] | > 7.00 | 6.30 to 7.00
5 | CC(C)(C)OC(=O)N1CCN(CC(=O)Nc2ccn(CCC(F)Cn3cc(C(=O)NCC4CCCC4)nn3)c(=O)c2)CC1 (stereo not shown) [Example 405, tert-butyl 4-({[1-(4-{4-[(cyclopentylmethyl)carbamoyl]-1H-1,2,3-triazol-1-yl}-3-fluorobutyl)-2-oxo-1,2-dihydropyridin-4-yl]carbamoyl}methyl)piperazine-1-carboxylate] | 6.30 to 7.00 | 6.30 to 7.00
6 | O=C(Cc1ccccc1)Nc1ccn(CCCCn2cc(C(=O)NCC3CCCCC3)nn2)c(=O)c1 [Example 36, N-(cyclohexylmethyl)-1-{4-[2-oxo-4-(2-phenylacetamido)-1,2-dihydropyridin-1-yl]butyl}-1H-1,2,3-triazole-4-carboxamide] | 6.30 to 7.00 | 5.30 to 6.30
7 | CC(C)(C)COC(=O)Nc1ccn(CCC(F)Cn2cc(C(=O)NCc3cc(C(F)(F)F)ccn3)nn2)c(=O)n1 (stereo not shown) [Example 492, 2,2-dimethylpropyl N-(1-{3-fluoro-4-[4-({[4-(trifluoromethyl)pyridin-2-yl]methyl}carbamoyl)-1H-1,2,3-triazol-1-yl]butyl}-2-oxo-1,2-dihydropyrimidin-4-yl)carbamate] | > 7.00 | > 7.00
8 | O=C(CC1CCCCC1)Nc1ccn(CCCCn2cc(C(=O)NCc3ncccc3F)nn2)c(=O)c1 [Example 146, 1-{4-[4-(2-cyclohexylacetamido)-2-oxo-1,2-dihydropyridin-1-yl]butyl}-N-[(3-fluoropyridin-2-yl)methyl]-1H-1,2,3-triazole-4-carboxamide] | > 7.00 | 6.30 to 7.00
9 | O=C(Nc1ccn(CCCCc2nnc(C(=O)NCc3ccccc3)s2)c(=O)n1)OCc1ccccc1 [Example 122, benzyl N-(1-{4-[5-(benzylcarbamoyl)-1,3,4-thiadiazol-2-yl]butyl}-2-oxo-1,2-dihydropyrimidin-4-yl)carbamate] | 6.30 to 7.00 | 6.30 to 7.00
10 | CC(C)(C)OC(=O)N1CC(CC(=O)Nc2ccn(CCC(F)Cn3cc(C(=O)NCc4cccc(OC(F)(F)F)c4)nn3)c(=O)c2)C1 (stereo not shown) [Example 277, tert-butyl 3-{[(1-{3-fluoro-4-[4-({[3-(trifluoromethoxy)phenyl]methyl}carbamoyl)-1H-1,2,3-triazol-1-yl]butyl}-2-oxo-1,2-dihydropyridin-4-yl)carbamoyl]methyl}azetidine-1-carboxylate] | > 7.00 | 6.30 to 7.00
11 | O=C(CN1CCCC(F)C1)Nc1ccn(CC(F)CCn2cc(C(=O)NCc3cccc(OC(F)(F)F)c3)nn2)c(=O)c1 (stereo not shown) [Example 283, 1-(3-fluoro-4-{4-[2-(3-fluoropiperidin-1-yl)acetamido]-2-oxo-1,2-dihydropyridin-1-yl}butyl)-N-{[3-(trifluoromethoxy)phenyl]methyl}-1H-1,2,3-triazole-4-carboxamide] | > 7.00 | > 7.00

Other lines, results leading:

Row | pIC50 [1] | pEC50 (A549 cells) | SMILES
12 | > 7.00 | 6.30 to 7.00 | O=C(NCc1ccccc1)c1ccn(CCCCn2cc(C(=O)NCc3cccc(OC(F)(F)F)c3)nn2)c(=O)c1 [Example 8, N-Benzyl-2-oxo-1-(4-(4-((3-(trifluoromethoxy)benzyl)carbamoyl)-1H-1,2,3-triazol-1-yl)butyl)-1,2-dihydropyridine-4-carboxamide]
13 | > 7.00 | 6.30 to 7.00 | O=C(Cc1c(F)cccc1F)Nc1ccn(CCC(F)Cn2cc(C(=O)NCc3cccc(OC(F)(F)F)c3)nn2)c(=O)c1F (stereo not drawn) [Example 335, l-(4-{4-[2-(2,6-difluorophenyl)acetamido]-3-fluoro-2-oxo-1,2-dihydropyridin-1-yl}-2-fluorobutyl)-N-{[3-(trifluoromethoxy)phenyl]methyl}-1H-1,2,3-triazole-4-carboxamide]
14 | > 7.00 | 6.30 to 7.00 | O=C(NCc1ccc(C(F)(F)F)nc1)c1cn(CC(F)CCn2ccc(NC(=O)C(F)c3ccccc3)c(F)c2=O)nn1 (stereo not drawn) [Example 372, l-{2-fluoro-4-[3-fluoro-4-(2-fluoro-2-phenylacetamido)-2-oxo-1,2-dihydropyridin-1-yl]butyl}-N-{[6-(trifluoromethyl)pyridin-3-yl]methyl}-1H-1,2,3-triazole-4-carboxamide]
15 | 5.30 to 6.30 | < 5.30 | CNC(=O)c1cn(CCCCn2ccc(NC(=O)Cc3ccccc3)cc2=O)nn1 [Example 32, N-methyl-1-{4-[2-oxo-4-(2-phenylacetamido)-1,2-dihydropyridin-1-yl]butyl}-1H-1,2,3-triazole-4-carboxamide]
16 | > 7.00 | > 7.00 | CC(C)(C)OC(=O)N1CCC(CC(=O)Nc2ccn(CCC(F)Cn3cc(C(=O)NCc4cccc(OC(F)(F)F)c4)nn3)c(=O)c2)C1 (stereo not shown) [Example 221, tert-butyl 3-{[(1-{3-fluoro-4-[4-({[3-(trifluoromethoxy)phenyl]methyl}carbamoyl)-1H-1,2,3-triazol-1-yl]butyl}-2-oxo-1,2-dihydropyridin-4-yl)carbamoyl]methyl}pyrrolidine-1-carboxylate]
17 | > 7.00 | > 7.00 | O=C(NCc1cccc(OC(F)(F)F)c1)c1cn(CC(F)CCn2ccc(NC(=O)C(F)c3ccccc3)c(F)c2=O)nn1 (stereo not shown) [Example 327, 1-{2-fluoro-4-[3-fluoro-4-(2-fluoro-2-phenylacetamido)-2-oxo-1,2-dihydropyridin-1-yl]butyl}-N-{[3-(trifluoromethoxy)phenyl]methyl}-1H-1,2,3-triazole-4-carboxamide]
18 | > 7.00 | 6.30 to 7.00 | O=C(CC1CCCC1)Nc1ccn(CCCCc2nnc(NC(=O)NCc3cccc(C(F)(F)F)c3)s2)c(=O)c1F [Example 133, 2-cyclopentyl-N-(3-fluoro-2-oxo-1-(4-(5-(3-(3-(trifluoromethyl)benzyl)ureido)-1,3,4-thiadiazol-2-yl)butyl)-1,2-dihydropyridin-4-yl)acetamide]
19 | 5.30 to 6.30 | < 5.30 | CC(C)CC(=O)Nc1ccn(CCCCn2cc(C(=O)NCc3ccccn3)nn2)c(=O)c1 [Example 38, 1-{4-[4-(3-methylbutanamido)-2-oxo-1,2-dihydropyridin-1-yl]butyl}-N-(pyridin-2-ylmethyl)-1H-1,2,3-triazole-4-carboxamide]
20 | > 7.00 | > 7.00 | O=C(Nc1ccn(CCC(F)Cn2cc(C(=O)NCc3cc(OC(F)(F)F)ccc3F)nn2)c(=O)c1F)C(=O)N1CCC[C@H](C(F)(F)F)C1 (mixture of isomers) [Example 435]
